One series concerns IκB kinase ε (IKK-ε). Also noted: method as in PMID 23396208. The settings on record: cited from earlier work.
Series [1] relates to cultured cortical astrocytes. Put plainly: p-PKA substrate Western blot in astrocytes. The class given is cell-based. The note with it: 10 µM AMX for 1 and 4 hours.
The conditions of series [2]: neuroinflammation or brain injury; cited from earlier work.
Series [3] deals with primary hippocampal neurons. Description: Scratch injury: lysosomal zinc (FluoZin-3 / LysoTracker). It is filed as cell-based, rat. The note with it: scratched neurons, 24 hours after scratch. How it is done: (§1) Primary hippocampal neurons were obtained from embryonic day 18 (E18) Sprague-Dawley rat embryos. Pregnant rats were anesthetized using 2-3% isoflurane in a gas mixture of 70% nitrous oxide and 30% oxygen. Following euthanasia, the hippocampi were carefully dissected, minced, and enzymatically dissociated using TrypLE Express (Gibco, NY, USA) for 10 minutes at 37°C. The tissue was further mechanically dissociated using fire-polished glass pipettes, and the resulting cell suspension was filtered through a 70 μm cell strainer to remove debris. Neurons were seeded at a density of 3 × 10^5 cells per well in 24-well plates pre-coated with poly-L-lysine (Sigma-Aldrich, Saint Louis, MO, USA). Cells were maintained in neurobasal medium supplemented with B-27 (Thermo Fisher Scientific, Waltham, MA, USA), GlutaMAX (Gibco), and penicillin-streptomycin. The cultures were incubated at 37.5°C in a humidified atmosphere containing 5% CO₂. After seven days of growth, neurons were fixed with 4% paraformaldehyde (PFA) for 15 minutes at room temperature and subsequently stored at 4°C until their further use for immunostaining.
(§2) A scratch injury model was used to mimic TBI in vitro. […] After the treatment period, neuronal damage and recovery were assessed using appropriate evaluation methods.

Series [4] relates to primary hippocampal neurons. Description: Scratch injury: cell viability analysis. It is filed as cell-based, rat. The note with it: scratched neurons, 24 hours post-scratch, 10 μM AMX. Here is the method: as §1, with “After seven days of growth, neurons were fixed with 4% paraformaldehyde (PFA) for 15 minutes at room temperature and subsequently stored at 4°C until their further use for immunostaining.” left out
as §2
[…] After incubation, absorbance was measured at 450 nm using a microplate reader (Spectramax, Molecular Devices Co., CA, USA). […]

In series [5] the test system is LAMP2 in primary hippocampal neurons. Description: Scratch injury: LAMP2 Western blot. The class given is cell-based, rat. The settings on record: scratch-AMX vs scratch-vehicle, 24 hours after scratch. How it is done:
as §1, with “The cultures were incubated at 37.5°C in a humidified atmosphere containing 5% CO₂. After seven days of growth, neurons were fixed with 4% paraformaldehyde (PFA) for 15 minutes at room temperature and subsequently stored at 4°C until their further use for immunostaining.” left out
as §2
Twenty-four hours after the scratch injury, cells were lysed using RIPA buffer (IBS-BR002, iNtRON, Republic of Korea) supplemented with protease and phosphatase inhibitors (Sigma, USA). […] Protein detection was performed using a chemiluminescence bioimaging device (Amersham Imager 680, Cytiva, MA, USA), and the results were analyzed to determine protein expression levels.

Series [6] concerns primary hippocampal neurons. Put plainly: Scratch injury: p-PKA immunofluorescence. It is filed as cell-based, rat. The note with it: 24 hours after scratch injury. How it is done:
as §1
A scratch injury model was used to mimic TBI in vitro. […] After the treatment period, neuronal damage and recovery were assessed using appropriate evaluation methods. […]

Series [7] relates to activated microglia and astrocytes (Iba1, GFAP). The settings on record: post-seizure AMX treatment; cited from earlier work.
The test system of the next series is BV2 cells. The settings on record: NF-κB/STAT3 downregulation; cited from earlier work.

As to `CC(C)c1ccc2oc3nc(N)c(C(=O)O)cc3c(=O)c2c1` [AMX, amlexanox], the “inhibition of IKK-ε” value with IκB kinase ε (IKK-ε) was “dual inhibitor”. In addition, the p-PKA levels result in series [1] is reported as “increased p-PKA levels”. Further, the “crossing of the BBB” value in series [2] is “can cross the BBB under pathological conditions”. Moreover, in [3], the “lysosomal zinc levels (FluoZin-3 / LysoTracker)” value is reported as “restored lysosomal zinc levels to near-normal levels”. Also, the cell viability entry in series [4] was “substantially improved cell viability”. Also, the LAMP2 expression result in series [5] was “significantly preserved”. For the same molecule, the “phosphorylation of PKA (immunofluorescence, Figure S2E-J)” value in [6] is “increasing the phosphorylation of PKA”. Also, in series [7], the “activated microglia and astrocytes (Iba1, GFAP)” value is “markedly decreased activated microglia and astrocytes”. Further, the LPS-induced microglial activation entry in the series on BV2 cells is on record as “attenuated LPS-induced microglial activation”.

The values above are taken from PMC12320245 (International Journal of Biological Sciences, 2025).
